Measurements from ChEMBL document CHEMBL1201862, “PubChem BioAssay data set” (2004).
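Interpolation was linear, between the two tested concentrations surrounding the appropriate level; five concentrations were tested over 48 hours in 96-well plates. At the GI50, growth is halved.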 The source made the active and inactive calls. No stated cut-off is given here; in the data, active = GI50 up to about 1.1 µM and inactive = higher. Residues, ends and D or L forms follow the SMILES beside them.

Legend:
Assay in all cases: NCI tumour cell line growth inhibition, 48 h
786-0 = tested on: 786-0
A549 = tested on: A549
CCRF-CEM = tested on: CCRF-CEM
COLO 205 = tested on: COLO 205
HCT-15 = tested on: HCT-15
HOP-92 = tested on: HOP-92
HT-29 = tested on: HT-29
Hs-578T = tested on: Hs-578T
MDA-MB-231 = tested on: MDA-MB-231
NCI-H23 = tested on: NCI-H23
NCI/ADR-RES = tested on: NCI/ADR-RES
OVCAR-4 = tested on: OVCAR-4
RPMI-8226 = tested on: RPMI-8226
SF-268 = tested on: SF-268
SK-MEL-5 = tested on: SK-MEL-5
SK-OV-3 = tested on: SK-OV-3
SN12C = tested on: SN12C
SNB-19 = tested on: SNB-19
U-251 = tested on: U-251
UACC-62 = tested on: UACC-62

Row | Structure (SMILES) | GI50 (786-0) | GI50 (A549) | GI50 (CCRF-CEM) | GI50 (COLO 205) | GI50 (HCT-15) [µM] | GI50 (HOP-92) | GI50 (HT-29) | GI50 (Hs-578T) | GI50 (MDA-MB-231) | GI50 (NCI-H23) | GI50 (NCI/ADR-RES) | GI50 (OVCAR-4) | GI50 (RPMI-8226) | GI50 (SF-268) | GI50 (SK-MEL-5) | GI50 (SK-OV-3) | GI50 (SN12C) | GI50 (SNB-19) | GI50 (U-251) | GI50 (UACC-62)
1 | CC(C)Cc1ccc(C(C)/C=C2\CCC(CN3CCOCC3)C2=O)cc1 (stereo not given) | 1.69 µM (inactive) | 18.6 µM (inactive) | 1.3 µM (inactive) | 9.44 µM (inactive) | 2.94 | 15.5 µM (inactive) | 6.73 µM (inactive) | 3.6 µM (inactive) | 1.73 µM (inactive) | 12.9 µM (inactive) | 3.93 µM (inactive) | 17.7 µM (inactive) | 0.665 µM (active) | 6.87 µM (inactive) | 10.4 µM (inactive) | 18.8 µM (inactive) | 9.27 µM (inactive) | 8.51 µM (inactive) | 13.5 µM (inactive) | 12.5 µM (inactive)
2 | CCC(C)C(NC(=O)C(CC(C)C)NC(=O)CNC(=O)C(NC(=O)C1CCCN1C(=O)C(CC(C)C)NC(=O)C(N)Cc1ccccc1)C(C)CC)C(=O)NC(CC(C)C)C(N)=O (stereo not given) (H-FLPIGLIL-NH2; configuration not given here) | > 75 µM (inactive) | > 75 µM (inactive) | > 75 µM (inactive) | > 75 µM (inactive) | > 75 | > 75 µM (inactive) | > 75 µM (inactive) | > 75 µM (inactive) | > 75 µM (inactive) | > 75 µM (inactive) | > 75 µM (inactive) | > 75 µM (inactive) | > 75 µM (inactive) | > 75 µM (inactive) | > 75 µM (inactive) | > 75 µM (inactive) | > 75 µM (inactive) | > 75 µM (inactive) | > 75 µM (inactive) | > 75 µM (inactive)
3 | O=C([O-])Cc1ccccc1.[Na+] [SODIUM PHENYLACETATE] | 1070 µM (inactive) | 1410 µM (inactive) | 671 µM (inactive) | 1340 µM (inactive) | 703 | 359 µM (inactive) | 931 µM (inactive) | 385 µM (inactive) | 174 µM (inactive) | > 2000 µM (inactive) | 540 µM (inactive) | 255 µM (inactive) | 413 µM (inactive) | 1340 µM (inactive) | 869 µM (inactive) | > 2000 µM (inactive) | 23.9 µM (inactive) | > 2000 µM (inactive) | 729 µM (inactive) | 1370 µM (inactive)
